Patent publication US20100105651A1, “ANTAGONISTS OF SNS SODIUM CHANNELS” (priority 2005, published 2010)

Each molecule was assayed against T1, human NaV1.8 (hNaV1.8) ion channel (Homo sapiens, UniProt Q9Y5Y9) (assay: Inhibition of Human NaV1.8 stably expressed in SH-SY-5Y cells (membrane potential dye fluorescence assay)). Conditions: SH-SY-5Y cells stably expressing hNaV1.8; FLIPR membrane potential dye; 10 μM pyrethroid, 250 nM TTX; test range 100 μM-0.05 μM; read-out: hNav1.8 IC50.
T1 construct: expressed in transfected cells
T1 sequence (Q9Y5Y9 whole entry): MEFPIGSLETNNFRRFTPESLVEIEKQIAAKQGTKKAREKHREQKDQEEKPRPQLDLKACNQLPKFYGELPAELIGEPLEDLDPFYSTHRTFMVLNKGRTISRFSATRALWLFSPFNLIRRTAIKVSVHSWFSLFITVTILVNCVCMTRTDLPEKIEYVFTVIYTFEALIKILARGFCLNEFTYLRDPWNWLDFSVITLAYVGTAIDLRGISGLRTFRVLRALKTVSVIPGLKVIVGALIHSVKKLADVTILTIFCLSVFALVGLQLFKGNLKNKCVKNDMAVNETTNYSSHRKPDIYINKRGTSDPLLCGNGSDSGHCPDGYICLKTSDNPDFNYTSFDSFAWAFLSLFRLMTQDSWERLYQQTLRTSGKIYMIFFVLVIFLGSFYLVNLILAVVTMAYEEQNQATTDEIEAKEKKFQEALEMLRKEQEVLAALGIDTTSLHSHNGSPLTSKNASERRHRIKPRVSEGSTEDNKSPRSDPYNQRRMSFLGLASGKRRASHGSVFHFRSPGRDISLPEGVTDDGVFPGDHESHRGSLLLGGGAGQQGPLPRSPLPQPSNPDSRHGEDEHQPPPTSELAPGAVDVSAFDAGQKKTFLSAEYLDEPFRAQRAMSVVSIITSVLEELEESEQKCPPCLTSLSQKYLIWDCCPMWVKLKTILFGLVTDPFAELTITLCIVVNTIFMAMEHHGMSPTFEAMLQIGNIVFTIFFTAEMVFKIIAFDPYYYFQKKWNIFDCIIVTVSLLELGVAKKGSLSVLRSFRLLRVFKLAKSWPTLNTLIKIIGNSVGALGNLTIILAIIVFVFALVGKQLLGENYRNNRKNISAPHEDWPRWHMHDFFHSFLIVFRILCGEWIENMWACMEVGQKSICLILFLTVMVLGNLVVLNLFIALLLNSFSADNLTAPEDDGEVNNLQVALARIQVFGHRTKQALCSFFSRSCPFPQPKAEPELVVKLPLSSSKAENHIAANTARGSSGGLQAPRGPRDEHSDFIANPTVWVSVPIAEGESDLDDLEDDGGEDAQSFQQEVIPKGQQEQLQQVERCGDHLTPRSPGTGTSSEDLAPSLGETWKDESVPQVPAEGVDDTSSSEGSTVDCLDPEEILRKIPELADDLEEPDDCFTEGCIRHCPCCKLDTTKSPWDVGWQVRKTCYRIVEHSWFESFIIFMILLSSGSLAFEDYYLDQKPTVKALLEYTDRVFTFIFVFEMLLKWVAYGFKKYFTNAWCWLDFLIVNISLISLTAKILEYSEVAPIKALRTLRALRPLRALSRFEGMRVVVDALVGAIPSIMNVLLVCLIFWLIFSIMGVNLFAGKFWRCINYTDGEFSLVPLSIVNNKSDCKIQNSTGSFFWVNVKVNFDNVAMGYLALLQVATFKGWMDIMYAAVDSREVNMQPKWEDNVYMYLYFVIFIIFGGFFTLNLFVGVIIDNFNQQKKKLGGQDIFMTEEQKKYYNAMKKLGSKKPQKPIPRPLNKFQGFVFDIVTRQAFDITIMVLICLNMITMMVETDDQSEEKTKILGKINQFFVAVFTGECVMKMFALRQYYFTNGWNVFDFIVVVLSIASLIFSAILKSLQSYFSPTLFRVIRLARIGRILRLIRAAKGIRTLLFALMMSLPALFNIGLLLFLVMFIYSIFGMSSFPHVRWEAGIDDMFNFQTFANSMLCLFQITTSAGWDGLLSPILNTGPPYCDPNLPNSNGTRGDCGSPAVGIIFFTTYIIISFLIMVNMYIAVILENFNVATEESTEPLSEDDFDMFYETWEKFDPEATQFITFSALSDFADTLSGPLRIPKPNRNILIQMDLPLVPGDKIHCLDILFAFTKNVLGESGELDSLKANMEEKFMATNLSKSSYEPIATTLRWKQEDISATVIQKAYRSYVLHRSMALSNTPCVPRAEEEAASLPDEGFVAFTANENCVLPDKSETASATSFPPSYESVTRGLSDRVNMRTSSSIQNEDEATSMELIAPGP
Format: cell-based
Protocol: Inhibition of Human NaV1.8 stably expressed in SH-SY-5Y cells
A SH-SY-5Y neuroblastoma cell line stably expressing the human NaV1.8 (hNaV1.8) ion channel was constructed. This cell line has been used to develop a medium to high throughput assay for determining the ability of test compounds to inhibit membrane depolarisation mediated via the hNaV1.8 channel.
SH-SY-5Y hNaV1.8 are grown in adherent monolayer culture using 50:50 Ham's F-12/EMEM tissue culture medium supplemented with 15% (v/v) foetal bovine serum; 2 mM L-glutamine, 1% NEAA and 600 μg·ml^−1 Geneticin sulphate. Cells are removed from the tissue culture flask using trypsin/EDTA and re-plated into black walled, clear bottom 96-well assay plates at 50,000 cells·well^−1 24 hours prior to assay.
On the day of assay the cell assay plates are washed to remove cell culture medium using a sodium free assay buffer (145 mM tetramethyl ammonium chloride; 2 mM calcium chloride; 0.8 mM magnesium chloride hexahydrate; 10 mM HEPES; 10 mM glucose; 5 mM potassium chloride, pH 7.4). Fluorescent membrane potential dye solution (FLIPR™ membrane potential dye, Molecular Devices Corporation), containing 10 μM of a pyrethroid to prevent channel inactivation and 250 nM tetrodotoxin (TTX) to reduce interference from TTX-sensitive sodium channels present in the cell line. Test compound, initially dissolved in dimethyl sulfoxide but further diluted in sodium free buffer, is added to achieve the final test concentration range of 100 μM-0.05 μM.
Cell plates are incubated for 30 minutes at room temperature to allow equilibration of dye and test compound. Plates are then transferred to a fluorescence plate reader for fluorescence measurement using an excitation wavelength of 530 nm whilst measuring fluorescence emission at 565 nm. […] Membrane depolarisation is registered by an increase in fluorescence emission at 565 nm.
The change in fluorescence seen in each test well upon the addition of sodium containing buffer is calculated relative to the baseline fluorescence for that well. This figure is then used for calculating the IC50 for each test compound.
For `O=C(Nc1ccc(C(F)(F)F)cc1)N1CC(NC2CCCc3ccccc32)C1` (stereo not shown) [Example 36, 3-(1,2,3,4-Tetrahydro-naphthalen-1-ylamino)-azetidine-1-carboxylic acid (4-trifluoromethyl-phenyl)-amide], the IC50 was 2770 nM. Work on `CN(C1CN(C(=O)Nc2ccc(Oc3ccc(F)cc3)cc2)C1)C1CCc2cc(F)ccc21` (stereo not shown) [Example 37, 3-[(5-Fluoro-indan-1-yl)-methyl-amino]-azetidine-1-carboxylic acid [4-(4-fluoro-phenoxy)-phenyl]-amide] yielded an IC50 of 420 nM. For `CN(C1CN(C(=O)Nc2ccc(Oc3ccccc3)cc2)C1)C1CCc2cc(F)ccc21` (stereo not shown) [Example 38, 3-[(5-Fluoro-indan-1-yl)-methyl-amino]-azetidine-1-carboxylic acid (4-phenoxy-phenyl)-amide], the IC50 was 560 nM. For `CN(C1CN(C(=O)Nc2ccc(C(F)(F)F)cc2)C1)C1CCc2cc(F)ccc21` (stereo not shown) [Example 39, 3[(5-Fluoro-indan-1-yl)-methyl-amino]-azetidine-1-carboxylic acid (4-trifluoromethyl-phenyl)-amide], the IC50 was 2020 nM. `CN(C1CN(C(=O)Nc2cccc(C(F)(F)F)c2)C1)C1CCc2cc(F)ccc21` (stereo not shown) [Example 40, 3[(5-Fluoro-indan-1-yl)-methyl-amino]-azetidine-1-carboxylic acid (3-trifluoromethyl-phenyl)-amide] gave an IC50 of 2300 nM. Molecule `CC1(NC2CCc3cc(F)ccc32)CN(C(=O)Nc2ccc(Oc3ccc(F)cc3)cc2)C1` (stereo not shown) [Example 41, 3-(5-Fluoro-indan-1-ylamino)-3-methyl-azetidine-1-carboxylic acid [4-(4-fluoro-phenoxy)-phenyl]-amide] has an IC50 of 560 nM. With `CC1(NC2CCc3ccccc3C2)CN(C(=O)Nc2ccc(C(F)(F)F)cc2)C1` (stereo not shown) [Example 42, 3-Methyl-3-(1,2,3,4-tetrahydro-naphthalen-2-ylamino)-azetidine-1-carboxylic acid (4-trifluoromethyl-phenyl)-amide] the IC50 was 690 nM. `O=C(c1ccc(Oc2ccc(F)cc2)cc1)N1CC(NC2CCc3cc(F)ccc32)C1` (stereo not shown) [Example 43, [3-(5-Fluoro-indan-1-ylamino)-azetidin-1-yl]-[4-(4-fluoro-phenoxy)-phenyl]-methanone] gave an IC50 of 240 nM. `CC(NC1CN(C(=O)c2ccc(Oc3ccccc3)cc2)C1)c1ccccc1` (stereo not shown) [Example 44, (4-Phenoxy-phenyl)-[3-(1-phenyl-ethylamino)-azetidin-1-yl]-methanone] was tested, and the IC50 was 730 nM. Work on `O=C(Cc1ccc(Oc2ccccc2)cc1)N1CC(NC2Cc3ccccc3C2)C1` [Example 45, 1-[3-(Indan-2-ylamino)-azetidin-1-yl]-2-(4-phenoxy-phenyl)-ethanone] yielded an IC50 of 650 nM. Work on `CC(NC1CN(C(=O)Cc2ccc(Oc3ccccc3)cc2)C1)c1ccccc1` (stereo not shown) [Example 46, 2-(4-Phenoxy-phenyl)-1-[3-(1-phenyl-ethylamino)-azetidin-1-yl]-ethanone] yielded an IC50 of 1070 nM. `O=C(Cc1ccc(Oc2ccccc2)cc1)N1CC(NC2CCc3cc(F)ccc32)C1` (stereo not shown) [Example 47, 1-[3-(5-Fluoro-indan-1-ylamino)-azetidin-1-yl]-2-(4-phenoxy-phenyl)-ethanone] was tested, and the IC50 was 1660 nM. `O=C(Cc1ccc(Oc2ccc(F)cc2)cc1)N1CC(NC2CCc3cc(F)ccc32)C1` (stereo not shown) [Example 48, 1-[3-(5-Fluoro-indan-1-ylamino)-azetidin-1-yl]-2-[4-(4-fluoro-phenoxy)-phenyl]-ethanone] was tested, and the IC50 was 690 nM. `O=C(Cc1ccc(Oc2ccc(F)cc2)cc1)N1CC(NC2Cc3ccccc3C2)C1` [Example 49, 2-[4-(4-Fluoro-phenoxy)-phenyl]-1-[3-(indan-2-ylamino)-azetidin-1-yl]-ethanone] was tested, and the IC50 was 430 nM. Work on `O=C(Cc1ccc(Oc2ccc(F)cc2)cc1)N1CC(NC2Cc3ccc(F)cc3C2)C1` (stereo not shown) [Example 50, 1-[3-(5-Fluoro-indan-2-ylamino)-azetidin-1-yl]-2-[4-(4-fluoro-phenoxy)-phenyl]-ethanone] yielded an IC50 of 780 nM. In the case of `C=CCOc1ccccc1CNC1CN(C(=O)Nc2ccc(OCc3ccccc3)cc2)C1` [Example 51, 3-(2-Allyloxy-benzylamino)-azetidine-1-carboxylic acid (4-benzyloxy-phenyl)-amide], the IC50 is reported as 340 nM. In the case of `O=C(Nc1ccc(OCc2ccccc2)cc1)N1CC(NCc2c(F)cccc2F)C1` [Example 52, 3-(2,6-Difluoro-benzylamino)-azetidine-1-carboxylic acid (4-benzyloxy-phenyl)-amide], the IC50 is reported as 870 nM. With `COC(=O)C(NC1CN(C(=O)Nc2ccc(Oc3ccccc3)cc2)C1)c1ccccc1` (stereo not shown) [Example 53, [1-(4-Phenoxy-phenylcarbamoyl)-azetidin-3-ylamino]-phenyl-acetic acid methyl ester] the IC50 was 2230 nM. Molecule `COc1ccc(C(C)NC2CN(C(=O)Nc3ccc(Oc4ccccc4)cc3)C2)cc1` (stereo not shown) [Example 54, 3-[1-(4-Methoxy-phenyl)-ethylamino]-azetidine-1-carboxylic acid (4-phenoxy-phenyl)-amide] has an IC50 of 420 nM. For `NC(=O)C(NC1CN(C(=O)Nc2ccc(Oc3ccccc3)cc2)C1)c1ccccc1` (stereo not shown) [Example 55, 3-[(Carbamoyl-phenyl-methyl)-amino]-azetidine-1-carboxylic acid (4-phenoxy-phenyl)-amide], the IC50 was 7710 nM. For `CC(NC1CN(C(=O)Nc2ccc(C(F)(F)F)cc2)C1)c1ccc(F)cc1` (stereo not shown) [Example 56, 3-[1-(4-Fluoro-phenyl)-ethylamino]-azetidine-1-carboxylic acid (4-trifluoromethyl-phenyl)-amide], the IC50 was 3280 nM. `CC(NC1CN(C(=O)Nc2ccc(Oc3ccccc3)cc2)C1)c1ccc(F)cc1Cl` (stereo not shown) [Example 57, 3-[1-(2-Chloro-4-fluoro-phenyl)-ethylamino]-azetidine-1-carboxylic acid (4-phenoxy-phenyl)-amide] gave an IC50 of 1220 nM. `CC(NC1CN(C(=O)Nc2cccc(Oc3ccccc3)c2)C1)c1ccc(F)cc1Cl` (stereo not shown) [Example 58, 3-[1-(2-Chloro-4-fluoro-phenyl)-ethylamino]-azetidine-1-carboxylic acid (3-phenoxy-phenyl)-amide] showed an IC50 of 1120 nM. Molecule `CC(c1ccc(F)cc1Cl)N(C)C1CN(C(=O)Nc2ccc(C(F)(F)F)cc2)C1` (stereo not shown) [Example 59, 3-{[1-(2-Chloro-4-fluoro-phenyl)-ethyl]-methyl-amino}-azetidine-1-carboxylic acid (4-trifluoromethyl-phenyl)-amide] has an IC50 of 1870 nM. Molecule `CC(c1ccc(F)cc1Cl)N(C)C1CN(C(=O)Nc2ccc(Oc3ccccc3)cc2)C1` (stereo not shown) [Example 60, 3-{[1-(2-Chloro-4-fluoro-phenyl)-ethyl]-methyl-amino}-azetidine-1-carboxylic acid (4-phenoxy-phenyl)-amide] has an IC50 of 570 nM. For `Cc1ccccc1C(C)NC1CN(C(=O)Nc2ccc(Oc3ccccc3)cc2)C1` (stereo not shown) [Example 61, 3-(1-o-Tolyl-ethylamino)-azetidine-1-carboxylic acid (4-phenoxy-phenyl)-amide], the IC50 was 750 nM. For `Cc1ccccc1C(C)N(C)C1CN(C(=O)Nc2ccc(Oc3ccccc3)cc2)C1` (stereo not shown) [Example 62, 3-[Methyl-(1-o-tolyl-ethyl)-amino]-azetidine-1-carboxylic acid (4-phenoxy-phenyl)-amide], the IC50 was 720 nM. Work on `CC(NC1CN(C(=O)Nc2ccc(Oc3ccccc3)cc2)C1)c1ccccc1Cl` (stereo not shown) [Example 63, 3-[1-(2-Chloro-phenyl)-ethylamino]-azetidine-1-carboxylic acid (4-phenoxy-phenyl)-amide] yielded an IC50 of 630 nM. `CCCCOc1ccc(NC(=O)N2CC(NC(C)c3ccccc3C)C2)cc1` (stereo not shown) [Example 65, 3-(1-o-Tolyl-ethylamino)-azetidine-1-carboxylic acid (4-butoxy-phenyl)-amide] gave an IC50 of 1420 nM. Work on `CCCCOc1ccc(NC(=O)N2CC(NC(C)c3ccc(F)cc3)C2)cc1` (stereo not shown) [Example 66, 3-[1-(4-Fluoro-phenyl)-ethylamino]-azetidine-1-carboxylic acid (4-butoxy-phenyl)-amide] yielded an IC50 of 2270 nM. In the case of `CC(c1ccccc1Cl)N(C)C1CN(C(=O)Nc2ccc(Oc3ccccc3)cc2)C1` (stereo not shown) [Example 67, 3-{[1-(2-Chloro-phenyl)-ethyl]-methyl-amino}-azetidine-1-carboxylic acid (4-phenoxy-phenyl)-amide], the IC50 is reported as 550 nM. `CCCCOc1cccc(NC(=O)N2CC(NC(C)c3ccccc3C)C2)c1` (stereo not shown) [Example 68, 3-(1-o-Tolyl-ethylamino)-azetidine-1-carboxylic acid (3-butoxy-phenyl)-amide] gave an IC50 of 830 nM. For `CCCCOc1cccc(NC(=O)N2CC(NC(C)c3ccc(F)cc3)C2)c1` (stereo not shown) [Example 69, 3-[1-(4-Fluoro-phenyl)-ethylamino]-azetidine-1-carboxylic acid (3-butoxy-phenyl)-amide], the IC50 was 1320 nM. For `CC(NC1CN(C(=O)Nc2ccc(Oc3ccccc3)cc2)C1)c1ccc(OC(F)(F)F)cc1` (stereo not shown) [Example 70, 3-[1-(4-Trifluoromethoxy-phenyl)-ethylamino]-azetidine-1-carboxylic acid (4-phenoxy-phenyl)-amide], the IC50 was 22100 nM.
